We go through 15 molecules from US6878736B1, “Histamine H3 receptor ligands” (James Black Foundation Limited, priority 1998, dated 2005).

Counter-ions that a name gives are not always drawn.

Experiment [1] has as its target T1, Histamine H3 receptor (Cavia porcellus, UniProt Q9JI35). The experiment in a line: Histamine H3 radioligand binding assay, guinea pig cortex ([3H]-R-α-methylhistamine). The conditions noted are these: guinea pig cortex membranes, competition with 1 nM [3H]-R-α-methylhistamine; for Ki: read-out: pKi (Guinea pig cortex) (converted). As for the experimental part: The compounds of the invention were also tested in a guinea pig cortex binding assay, as follows:
Histamine H3 Radioligand Binding Assay—Guinea Pig Cortex
Male Dunkin Hartley guinea pigs (200-300 g) were used. The whole brain was removed and immediately placed in ice-cold 20 mM Hepes-NaOH buffer (pH7.4 at 21±3° C.). The cortex was dissected, weighed and homogenised in ice-cold 20 mM Hepes-NaOH buffer (pH7.4 at 21±3° C.) (50 ml/guinea-pig cortex) using a polytron (Kinematica AG; PT-DA 3020/2TS, 3×3 s). The homogenate was centrifuged at 100×g for 5 min and the supernatants pooled and stored at 4° C. The pellets were rehomogenised in fresh ice-cold buffer (80 ml) and recentrifuged (100×g for 5 min). The supernatants were pooled and pellets rehomogenised and recentrifuged (100×g for 5 min). All supernatants were pooled and centrifuged at 39,800×g for 12 min at 4° C. The final pellet was resuspended in 20 mM Hepes-NaOH buffer (pH7.4 at 21±3° C.) to a tissue concentration of 7.5 mg.ml^−1, using a teflon-in-glass homogeniser.
Guinea pig cortex membranes (400 μl) were incubated for 165 min at 21±3° C. in a final volume of 500 μl with 20 mM Hepes-NaOH buffer containing [^3H]-R-α-methylhistamine (50 μl; 1 nM) and competing compound. Total and non-specific binding of [^3H]-R-α-methylhistamine were defined using 50 μl of buffer and 50 μl of 10 μM thioperamide, respectively. The assay was terminated by rapid filtration through Whatman GF/B filters, presoaked (2 hr) in 0.1% polyethyleneimine, using a Brandell Cell Harvester. The filters were washed (3×3 ml) with ice-cold 50 mM Tris-HCl (pH6.9 at 21±3° C.), transferred into scintillation vials, 5 ml liquid scintillation cocktail was added and after 4 hours the bound radioactivity was determined by counting (4 min) in a Beckman liquid scintillation counter.
Data are analysed using GraphPad prism and the general equation for a competition curve with variable Hill slope (nH). [formula] where • X is the log concentration of competing compound, • Y is the binding obtained at each concentration of X, • pIC50 is the concentration of the competitor required to compete for half of the specific binding.
The IC50 is converted to the K1 using the Cheng Prusoff equation, K1=IC50/(1+(L/KD)) where • IC50 is the concentration of competitor required to compete for half the specific binding, • L is the radioligand concentration used, • KD is the equilibrium dissociation constant for the radioligand determined by saturation experiments.

Experiment [2] concerns the target T1, Histamine H3 receptor. In words: Histamine H3 functional assay, guinea pig ileum (ileal longitudinal muscle, myenteric plexus). The conditions noted are these: antagonist affinity from rightward shift of R-(α)-methylhistamine E/[A] curves (Schild), typical variance ±0.15 log units; for Kb: read-out: pKb (Guinea pig ileum) (converted). Set-up: species or system tissue. As for the experimental part: • 1. J. Med. Chem 1994, 314. • 2. WO 97/29092 Histamine H3 Functional Assay—Guinea Pig Ileum
The biological activity of the compounds of the examples was measured using the ileal longitudinal muscle, myenteric plexus assay described by Paton and Aboo Zar (J. Physiol. 1968, 194, 13-33). Male Dunkin-Hartley guinea pigs (250-300 g) were employed. Briefly, a 50 cm portion of ileum proximal to the caecum was removed, after discarding the terminal 20 cm. Ileal segments (3 cm) were cleaned by passing Krebs-Henseleit buffer containing 3 μM mepyramine gently through the ileum using a Pasteur pipette (size: 13.8 cm length, 0.65 cm diameter). To avoid unnecessary damage to the tissue, Krebs-Henseleit buffer was passed through the ileal segment, while it was lying horizontally on a petri dish. Therefore, the ileum was not over-distended and the buffer flowed through with ease. Each segment was then passed over a Pasteur pipette and the longitudinal muscle layer and adhering myenteric plexus was teased away using moist cotton wool, by stroking tangentially away from the mesenteric attachment. The tissues were suspended in 20 ml organ baths containing Krebs-Henseleit buffer at 37±1° C. and gassed with […]. The tissues were ligated to two parallel stainless steel wires, situated between two platinum electrodes (0.76 cm length, 0.06 cm diameter). All measurements were recorded isometrically (Grass FTO3 transducer). Following an initial loading tension of 1 g, the tissues were stimulated with electrical pulses at a frequency of 0.1 Hz and a pulse duration of 0.5 msec, as described by Kosterlitz & Watt (Br. J. Pharmacol. 1968, 266276). Initially, the tissues were stimulated at supramaximal (1.3 fold times maximal) voltage for a period of 30 min and then the tissues were washed and re-stimulated. A “sighter dose” of the selective histamine H3-receptor agonist, R-(α)-methylhistamine (0.3 μM) (Arrang et al. Nature, 1987, 117-123), was administered. Upon generation of response, the “sighter dose” was removed from the tissues by “washout” (6 washes over 60 min) and during this period the electrical stimulation was switched off. The tissues were then re-stimulated and allowed to stabilise prior to the addition of drug treatments, which were allocated on a randomised block basis to the organ baths. Following the incubation period, a single cumulative E/[A] curve was obtained. The experimental E/[A] curve data was expressed as the percentage inhibition of the peak height of electrically-stimulated contraction. Antagonist affinity values were calculated from the degree of rightward shift of the R-(α)-methylhistamine E/[A] curves using Schild's methods (Arunlakshana & Schild Br. J. Pharmacol. 1959, 48-58). Typical variance in this assay is ±0.15 log units.

T1 sequence (Q9JI35 whole entry): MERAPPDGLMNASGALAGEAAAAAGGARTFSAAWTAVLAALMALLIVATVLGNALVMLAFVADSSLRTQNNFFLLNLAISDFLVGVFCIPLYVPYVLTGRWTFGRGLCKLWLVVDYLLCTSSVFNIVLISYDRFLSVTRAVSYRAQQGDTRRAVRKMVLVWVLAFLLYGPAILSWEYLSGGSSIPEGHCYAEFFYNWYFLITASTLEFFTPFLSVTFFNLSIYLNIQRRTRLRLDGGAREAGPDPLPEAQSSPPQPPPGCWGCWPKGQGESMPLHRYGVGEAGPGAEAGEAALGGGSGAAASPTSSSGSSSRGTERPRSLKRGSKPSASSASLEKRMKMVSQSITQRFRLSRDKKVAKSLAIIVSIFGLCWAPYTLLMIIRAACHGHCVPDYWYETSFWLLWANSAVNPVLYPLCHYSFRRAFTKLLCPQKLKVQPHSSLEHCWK

In the case of `N=C(N)NCCCN1CCCC1` [Example 1, N-(3-Pyrrolidin-1-yl-propyl)-guanidine bis-hydrochloride], the Ki at Histamine H3 receptor [1] is 63.1 nM. Moreover, the Kb at Histamine H3 receptor [2] was 3980 nM.
As to `O=S(=O)(NCCCN1CCCC1)c1ccc2ccccc2c1` [Example 82, N-(3-Pyrrolidin-1-yl-propyl)-2-naphthalenesulfonamide], the Ki at Histamine H3 receptor [1] was 316 nM. For the same molecule, on Histamine H3 receptor [2], the Kb is 1000 nM.
Take `Cl.Cl.N=C(NCCCCCCN1CCCC1)NCC12CC3CC(CC(C3)C1)C2` [Example 77, N-Adamantan-1-yl-methyl-N-(6-pyrrolidin-1-yl-hexyl)-guanidine bis-hydrochloride]: the “pKi (Guinea pig cortex)” value on Histamine H3 receptor [1] (bis-hydrochloride) came out at 8.2. For the same molecule, the “pKb (Guinea pig ileum)” value at Histamine H3 receptor [2] turned out to be 8.0.
For the molecule `Cl.Cl.N=C(NCCCCN1CCCC1)NCC1CCCCC1` [Example 40, N-Cyclohexyl-methyl-N′-(4-pyrrolidin-1-yl-butyl)-guanidine bis-hydrochloride], the “pKi (Guinea pig cortex)” value on Histamine H3 receptor [1] was 8.4. In addition, at Histamine H3 receptor [2], the “pKb (Guinea pig ileum)” value stood at 7.4.
`CN1CCC[C@H]1CCCNS(=O)(=O)Cc1ccc(Cl)cc1` [Example 99]: at Histamine H3 receptor [1], the Ki was 200 nM. Further, at Histamine H3 receptor [2], the Kb is 316 nM.
For `CNC(=O)CN(CCC[C@@H]1CCCN1C)S(=O)(=O)NCc1ccc(Cl)cc1` [Example 127, N-(4-Chlorobenzyl)-N′-(methylamidomethyl)-N′-(3-(1-methyl-pyrrolidin-2S-yl)propyl)-sulfamide], the Ki on Histamine H3 receptor [1] is 2000 nM. Also, the Kb on Histamine H3 receptor [2] was 2000 nM.
In the case of `CN1CCC[C@H]1CCCNS(=O)(=O)NCc1ccc(I)cc1` [Example 114, N-(4-Iodobenzyl)-N′-(3-(1-methyl-pyrrolidin-2S-yl)-propyl)-sulfamide], the Ki at Histamine H3 receptor [1] was 316 nM. Moreover, the Kb on Histamine H3 receptor [2] was 100 nM.
Taken in the same sequence, the figures for `O=S(=O)(Cc1ccc(Cl)cc1)NCCCN1CCCC1` [Example 106, N-(3-Pyrrolidin-1-yl-propyl)-(4-chlorophenyl)-methanesulfonamide] were 1000 nM and 631 nM.
As to `Cl.Cl.N=C(NCCCCCN1CCCC1)NCC1CCCCCC1` [Example 46, N-Cycloheptyl-methyl-N′(5-pyrrolidin-1-yl-pentyl)-guanidine bis-hydrochloride], the “pKi (Guinea pig cortex)” value on Histamine H3 receptor [1] is 8.5. Besides, the “pKb (Guinea pig ileum)” value at Histamine H3 receptor [2] is 7.7.
As for `CN1CC(OCc2ccc(Cl)cc2)CC1CCCNS(=O)(=O)NCc1ccc(Cl)cc1` (stereo not drawn) [Example 133, N-(4-Chlorobenzyl)-N′-(3-(4R-(4-chlorobenzyloxy)-1-methyl-pyrrolidin-2S-yl)-propyl)-sulfamide], the Ki at Histamine H3 receptor [1] is 2510 nM. Besides, at Histamine H3 receptor [2], the Kb is above 3160 nM.
`C[C@H](NC(=N)NCCCCCN1CCCC1)c1ccccc1` [Example 49, N-(1(S)-Phenyl-ethyl)-N′-(5-pyrrolidin-1-yl-pentyl)-guanidine bis-hydrochloride]: the Ki on Histamine H3 receptor [1] is 6.31 nM. In addition, the Kb on Histamine H3 receptor [2] is 31.6 nM.
With `CN1CCC[C@H]1CCCN(C)S(=O)(=O)N(C)Cc1ccc(Cl)cc1` [Example 120, N-(4-Chlorobenzyl)-N,N′-dimethyl-N′-(3-(1-methyl-pyrrolidin-2S-yl)-propyl)-sulfamide], the Ki on Histamine H3 receptor [1] was 501 nM. Further, the Kb at Histamine H3 receptor [2] is 501 nM.
In the case of `Cl.Cl.N=C(NCCCCCN1CCCC1)NCC1CCCCC1` [Example 41, N-Cyclohexyl-methyl-N′-(5-pyrrolidin-1-yl-pentyl)-guanidine bis-hydrochloride], the “pKi (Guinea pig cortex)” value on Histamine H3 receptor [1] turned out to be 8.9. Besides, the “pKb (Guinea pig ileum)” value on Histamine H3 receptor [2] was determined as 7.5.
Regarding `N=C(NCCCN1CCCC1)NCCc1ccc(Cl)cc1` [Example 20, N-(2(4-Chlorophenyl)ethyl)-N′-(3-pyrrolidin-1-yl-propyl)-guanidine bis-hydrochloride], on Histamine H3 receptor [1], the Ki is 1 nM. The Kb on Histamine H3 receptor [2] was 200 nM.
The like results for `N=C(NCCCN1CCCC1)NCc1ccc2[nH]cnc2c1` [Example 13, N-(1H-Benzimidazol-5-yl-methyl)-N′-(3-pyrrolidin-1-yl-propyl)-guanidine tris-hydrochloride] were, in that order, 20 nM and 501 nM.
